In patent US10172837B2, “Insulin sensitisers and methods of treatment” (NAIA Metabolic, Inc., priority 2007, dated 2019):

How the values were obtained:
Assay type in all cases: in vivo, Mus Musculus
[1] = system: Diet-Induced Obese (DIO) Mice; assay: Fasting plasma glucose in diet-induced obese mice; settings: for FPG Day −1: before dosing
[2] = Body weight of treated diet-induced obese mice
Procedure: Male C57Bl/6J mice were obtained at 8 weeks of age from Animal Resources Centre (Canning Vale, Western Australia). Animals were individually housed and allowed free movement and ad libitum access to water and food. Animals were maintained on a 12 hour light (6 am-6 pm) and 12 hour dark (6 pm-6 am) cycle. Animals were monitored daily. Body weight, food and water intake were recorded 3 times a week.

[3] = system: Diet-Induced Obese (DIO) Mice; assay: ipGTT (glucose tolerance) in diet-induced obese mice; settings: for AUC Day −1: before dosing
db/db mice = assay: Fasting plasma glucose in db/db mice; settings: for FPG Day 0: Metformin 300 mg/kg group
Excerpt: The db/db mouse model comprises mice with a homozygous mutation of the leptin receptor gene that ablates leptin signalling in the hypothalamus and elsewhere. The db/db mouse model is commonly used to study the genetic and physiological mechanisms of obesity and type II diabetes. […] Leptin acts through the leptin receptor to control whole-body energy homeostasis by regulating both appetite and energy expenditure. Loss of function of the leptin receptor gene results in hyperphagia and slower metabolism, leading to obesity and eventually diabetes. […] Dosing solutions of the test articles: Methazolamide, Metformin and Methazolamide/Metformin were prepared fresh on each dosing day and stored at room temperature, protected from light. The compound was formulated in sterile vehicle: […] Stock solutions were prepared by dissolving the compound in NMP:PEG300 (1:2, v/v). Saline was added to the stock solution prior to administration of the compound. The solutions were mixed by vortexing immediately prior to dosing to ensure a homogeneous suspension of the compound. Male C57Bl/6J db/db mice were obtained at 10 weeks of age from Animal Resources Centre ([…], Western Australia). Animals were individually housed and allowed free movement and ad libitum access to water and food. Animals were maintained on a 12 hour light (6 am-6 pm) and 12 hour dark (6 pm-6 am) cycle. Animals were monitored daily. Body weight, food and water intake were recorded 3 times a week. Mice were fed a standard chow diet, and used after a two week acclimatisation period. […] The fasting plasma glucose levels of the animals was tested prior to commencement of the study and then every 3-4 days during dosing. The animals were fasted for a period of 4 hours after dosing and prior to the taking of a blood sample via a tail nick. Blood glucose levels were monitored using commercially available glucometers (Accuchek Advantage, Roche) based on the electric current generated when a blood drop is spotted on a test strip resulting in conversion of the glucose present in the sample to gluconolactone by the glucose dehydrogenase enzyme, in the presence of the coenzyme (PQQ).

[4] = Acetazolamide 10 mg/kg b.i.d. oral gavage
[5] = Acetazolamide 20 mg/kg b.i.d. oral gavage
[6] = Acetazolamide 50 mg/kg b.i.d. oral gavage
[7] = Metformin 300 mg/kg oral gavage
[8] = Chlorthalidone 10 mg/kg oral gavage
[9] = Chlorthalidone 20 mg/kg oral gavage
[10] = Chlorthalidone 50 mg/kg oral gavage
[11] = Furosemide 10 mg/kg oral gavage
[12] = Furosemide 20 mg/kg oral gavage
[13] = Furosemide 50 mg/kg oral gavage

Structure (SMILES): CC(=O)Nc1nnc(S(N)(=O)=O)s1 [Acetazolamide]
- effect on fasting plasma glucose levels of diet-induced obese mice [1]: reduced the fasting plasma glucose levels
- Delta FPG Treatment Day 13 vs Day −1 [1, 4]: −9%
- FPG Day 13 [1, 4]: 5.76 ± 0.43 mM
- FPG Treatment vs Vehicle Day 13 [1, 4]: −9%
- FPG Day −1 ([1]; Acetazolamide 10 mg/kg group): 6.35 ± 0.5 mM
- Delta FPG Treatment Day 13 vs Day −1 [1, 5]: −14%^2
- FPG Day 13 [1, 5]: 5.46 ± 0.32 mM
- FPG Treatment vs Vehicle Day 13 [1, 5]: −14%^1
- FPG Day −1 ([1]; Acetazolamide 20 mg/kg group): 6.32 ± 0.42 mM
- Delta FPG Treatment Day 13 vs Day −1 [1, 6]: −5%
- FPG Day 13 [1, 6]: 6.28 ± 0.31 mM
- FPG Treatment vs Vehicle Day 13 [1, 6]: −1%
- FPG Day −1 ([1]; Acetazolamide 50 mg/kg group): 6.62 ± 0.38 mM
- difference in body weight between treated groups ([2]; Day 0 or Day 13, DIO mice): no difference in body weight
- effect on glucose tolerance of diet-induced obese mice [3]: increased the glucose tolerance
- AUC Day 13 [3, 4]: 944 ± 26 mM·min
- AUC Treatment vs Vehicle Day 13 [3, 4]: −22%^2
- Delta AUC Treatment Day 13 vs Day −1 [3, 4]: −30%^1
- AUC Day −1 ([3]; Acetazolamide 10 mg/kg group): 1342 ± 88 mM·min
- AUC Day 13 [3, 5]: 902 ± 98 mM·min
- AUC Treatment vs Vehicle Day 13 [3, 5]: −25%^3
- Delta AUC Treatment Day 13 vs Day −1 [3, 5]: −33%^1
- AUC Day −1 ([3]; Acetazolamide 20 mg/kg group): 1340 ± 68 mM·min
- AUC Day 13 [3, 6]: 1020 ± 144 mM·min
- AUC Treatment vs Vehicle Day 13 [3, 6]: −15%^
- Delta AUC Treatment Day 13 vs Day −1 [3, 6]: −23%^2
- AUC Day −1 ([3]; Acetazolamide 50 mg/kg group): 1323 ± 109 mM·min

Structure (SMILES): CN(C)C(=N)N=C(N)N [Metformin]
- FPG Day 0 (db/db mice; before dosing (Table 9-1)): 23.86 ± 1.4 mM
- FPG Day 0 (db/db mice; before dosing (Table 9-2)): 23.86 ± 1.4 mM
- Delta FPG Treatment Day 8 vs Day 0 (db/db mice; [7]): −20%^2
- Delta FPG Treatment Day 18 vs Day 0 (db/db mice; [7]): −16%^
- FPG Day 8 (db/db mice; [7]): 19.10 ± 2.1 mM
- FPG Day 18 (db/db mice; [7]): 20.01 ± 1.8 mM
- FPG Treatment vs Vehicle Day 8 (db/db mice; [7]): −18%^
- FPG Treatment vs Vehicle Day 18 (db/db mice; [7]): −27%^4
- FPG Day −1 ([1]; Metformin 300 mg/kg group): 6.1 ± 0.6 mM
- Delta FPG Treatment Day 13 vs Day −1 [1, 7]: 11%
- Delta FPG Treatment vs Vehicle Day 13 [1, 7]: −11%
- FPG Day 13 [1, 7]: 6.8 ± 0.4 mM
- AUC Day −1 ([3]; Metformin 300 mg/kg group): 1171 ± 81 mM·min
- AUC Day 13 [3, 7]: 1307 ± 91 mM·min
- AUC Day 13 Treat vs Veh [3, 7]: 8%
- Delta AUC Day 13 vs Day −1 [3, 7]: 12%

Structure (SMILES): NS(=O)(=O)c1cc(C2(O)NC(=O)c3ccccc32)ccc1Cl (stereo not drawn) [Chlorthalidone]
- effect on fasting plasma glucose levels of diet-induced obese mice [1]: no beneficial effect
- FPG Day −1 ([1]; Chlorthalidone 10 mg/kg group): 7.8 ± 0.31 mM
- Delta FPG Treatment Day 13 vs Day −1 [1, 8]: 4%
- FPG Day 13 [1, 8]: 8.08 ± 0.35 mM
- FPG Treatment vs Vehicle Day 13 [1, 8]: 5%
- FPG Day −1 ([1]; Chlorthalidone 20 mg/kg group): 7.58 ± 0.18 mM
- Delta FPG Treatment Day 13 vs Day −1 [1, 9]: −7%
- FPG Day 13 [1, 9]: 7.08 ± 0.31 mM
- FPG Treatment vs Vehicle Day 13 [1, 9]: −8%
- FPG Day −1 ([1]; Chlorthalidone 50 mg/kg group): 7.94 ± 0.4 mM
- Delta FPG Treatment Day 13 vs Day −1 [1, 10]: −7%
- FPG Day 13 [1, 10]: 7.4 ± 0.51 mM
- FPG Treatment vs Vehicle Day 13 [1, 10]: −4%
- effect on glucose tolerance of diet-induced obese mice [3]: no beneficial effect
- AUC Day −1 ([3]; Chlorthalidone 10 mg/kg group): 1439 ± 137 mM·min
- AUC Day 13 [3, 8]: 1660 ± 137 mM·min
- AUC Treatment vs Vehicle Day 13 [3, 8]: 29%
- Delta AUC Treatment Day 13 vs Day −1 [3, 8]: 15%
- AUC Day −1 ([3]; Chlorthalidone 20 mg/kg group): 1416 ± 110 mM·min
- AUC Day 13 [3, 9]: 1263 ± 75 mM·min
- AUC Treatment vs Vehicle Day 13 [3, 9]: −2%
- Delta AUC Treatment Day 13 vs Day −1 [3, 9]: −11%
- AUC Day −1 ([3]; Chlorthalidone 50 mg/kg group): 1398 ± 87 mM·min
- AUC Day 13 [3, 10]: 1512 ± 46 mM·min
- AUC Treatment vs Vehicle Day 13 [3, 10]: 17%
- Delta AUC Treatment Day 13 vs Day −1 [3, 10]: 8%

Structure (SMILES): NS(=O)(=O)c1cc(C(=O)O)c(NCc2ccco2)cc1Cl [Furosemide]
- FPG Day −1 ([1]; Furosemide 10 mg/kg group): 7.28 ± 0.3 mM
- Delta FPG Treatment Day 13 vs Day −1 [1, 11]: 24%
- FPG Day 13 [1, 11]: 9.02 ± 0.4 mM
- FPG Treatment vs Vehicle Day 13 [1, 11]: 4%
- FPG Day −1 ([1]; Furosemide 20 mg/kg group): 7.4 ± 0.4 mM
- Delta FPG Treatment Day 13 vs Day −1 [1, 12]: 15%
- FPG Day 13 [1, 12]: 8.50 ± 0.4 mM
- FPG Treatment vs Vehicle Day 13 [1, 12]: −2%
- FPG Day −1 ([1]; Furosemide 50 mg/kg group): 6.78 ± 0.3 mM
- Delta FPG Treatment Day 13 vs Day −1 [1, 13]: 20%
- FPG Day 13 [1, 13]: 8.16 ± 0.6 mM
- FPG Treatment vs Vehicle Day 13 [1, 13]: −6%
- outcome of animals ([2]; 100 mg/kg/d, DIO mice): had to be euthanized
- body weight lost ([2]; 100 mg/kg/d, in 5 days, DIO mice): ~6 g
- body weight effect ([2]; DIO mice, consistent with a toxic effect): substantial body weight loss
